Measured values reported in US10966911B2, “Melanin decomposition inhibitor” (KAO CORPORATION, priority 2016, dated 2021).

What was measured:
Type in all cases: cell-based, human
[1] = system: dopa oxidase activity of melanocytes; experiment: Dopa oxidase activity of melanocytes in keratinocyte-melanocyte co-culture system; conditions: melanocytes (lightly and darkly), proguanil 0.1-1000 μM, 4 days, versus DMSO, FIGS. 16A, 16B
Protocol: Melanocytes (lightly and darkly) were seeded in 96-well plates at a cell density of 2×10^4 cells/well (100 μL/well). […] Two days later, proguanil was added at a final concentration of 0.1, 0.3, 1, 3, 10, 30, 100, 300 or 1000 μM and culture was performed at 37° C. in 5 vol % CO2 atmospheric conditions for 4 days. As a control, the same amount of DMSO was added. After completion of culture, the whole medium was replaced (100 μL/well), a reagent, alamarBlue (Bio-Rad AbD Serotec Limited) was added so as to obtain a ratio of 10 μL/well. Incubation was carried out at 37° C. in 5 vol % CO2 atmospheric conditions for one hour. Thereafter, fluorescence intensity of the medium was measured (Ex544 nm/Em590 nm) to evaluate cellular respiratory chain (growth) activity. […] The cells were lysed at 4° C. over 2 hours and dopa oxidase activity was measured. The activity measurement was performed by the following method based on the […] method (Winder A. et al., 1991, Eur. J. Biochem. 198: 317-326): to individual wells containing a cell lysate, the Assay Buffer (80 μL) as mentioned above, an aqueous 20.7 mM MBTH (3-methyl-2-benzothiazolinone hydrazone) solution (60 μL) and an aqueous 5 mM L-DOPA (L-dihydroxyphenylalanine) (40 μL) solution serving as a substrate were added, a reaction was performed at 37° C. for 30 minutes and the absorbance at a wavelength of 505 nm was measured. […]

[2] = system: dopa oxidase activity of melanocytes; experiment: Dopa oxidase activity of melanocytes in melanocyte single culture system; conditions: melanocytes (lightly and darkly); proguanil 0.1-1000 μM; 4 days; versus DMSO; FIGS. 14A, 14B
Protocol: Normal human neonatal foreskin-derived epidermal melanocytes (Human Epidermal Melanocytes, neonatal, lightly pigmented donor (HEMn-LP) and Human Epidermal Melanocytes, neonatal, darkly pigmented donor (HEMn-DP); melanocytes (lightly) and melanocytes (darkly)), a growth medium for epidermal melanocytes (Medium254) and a growth additive (HMGS) for the medium were purchased from Thermo Fisher Scientific. Melanocytes were cultured at 37° C. in 5 vol % CO2 atmospheric conditions.
Melanocytes (lightly and darkly) were seeded in 96-well plates at a cell density of 2×10^4 cells/well (100 μL/well). […] Thereafter, fluorescence intensity of the medium was measured (Ex544 nm/Em590 nm) to evaluate cellular respiratory chain (growth) activity. […] The cells were lysed at 4° C. over 2 hours and dopa oxidase activity was measured. The activity measurement was performed by the following method based on the […] method (Winder A. et al., 1991, Eur. J. Biochem. 198: 317-326): to individual wells containing a cell lysate, the Assay Buffer (80 μL) as mentioned above, an aqueous 20.7 mM MBTH (3-methyl-2-benzothiazolinone hydrazone) solution (60 μL) and an aqueous 5 mM L-DOPA (L-dihydroxyphenylalanine) (40 μL) solution serving as a substrate were added, a reaction was performed at 37° C. for 30 minutes and the absorbance at a wavelength of 505 nm was measured.

[3] = system: melanocytes (HEMn-LP, HEMn-DP); experiment: Cellular respiratory chain (growth) activity, alamarBlue, melanocyte single culture system; conditions: melanocytes (lightly and darkly); concentration range of 30 μM or less; 4 days; FIGS. 14C, 14D
Protocol: Melanocytes (lightly and darkly) were seeded in 96-well plates at a cell density of 2×10^4 cells/well (100 μL/well). […] As a control, the same amount of DMSO was added. After completion of culture, the whole medium was replaced (100 μL/well), a reagent, alamarBlue (Bio-Rad AbD Serotec Limited) was added so as to obtain a ratio of 10 μL/well. Incubation was carried out at 37° C. in 5 vol % CO2 atmospheric conditions for one hour. Thereafter, fluorescence intensity of the medium was measured (Ex544 nm/Em590 nm) to evaluate cellular respiratory chain (growth) activity.

`[H]/N=C(\N/C(=N/[H])Nc1ccc(Cl)cc1)NC(C)C` [proguanil, 1-(p-chlorophenyl)-5-isopropyl biguanide] was tested, and the dopa oxidase activity [1] was “does not accelerate dopa oxidase activity”, the dopa oxidase activity [2] was “did not accelerate dopa oxidase activity” and the “cell toxicity (cellular respiratory chain activity)” value [3] was “cell toxicity was not observed”.
